Some results are limits rather than exact numbers.

In the first assay the target is T1, IBV PLpro (Avian infectious bronchitis virus (strain M41), UniProt P0C6Y3). The assay is described as follows: UB-AMC deubiquitination, fluorescence kinetics. The settings on record: read-out: relative enzymatic activity at 100 μM. It is filed as biochemical.
T1 sequence (P0C6Y3 1177-1499): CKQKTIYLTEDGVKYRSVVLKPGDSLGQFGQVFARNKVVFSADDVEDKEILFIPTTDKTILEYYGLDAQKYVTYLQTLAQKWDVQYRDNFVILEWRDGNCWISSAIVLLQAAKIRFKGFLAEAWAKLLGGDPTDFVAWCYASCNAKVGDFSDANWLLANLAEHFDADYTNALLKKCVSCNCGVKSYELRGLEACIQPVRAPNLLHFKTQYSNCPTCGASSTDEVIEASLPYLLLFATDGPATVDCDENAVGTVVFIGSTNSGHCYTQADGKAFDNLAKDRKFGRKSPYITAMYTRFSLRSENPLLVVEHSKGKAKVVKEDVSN
For `COc1ccc(-c2oc3c(CC=C(C)C)c(O[C@@H]4O[C@H](CO)[C@@H](O)[C@H](O)[C@H]4O)cc(O)c3c(=O)c2O[C@@H]2O[C@@H](C)[C@H](O)[C@@H](O)[C@H]2O)cc1` [icariin], the activity at 100 µM was less than 20%.
For the molecule `O=c1cc(-c2ccccc2)oc2cc(O)cc(O)c12` [chrysin], the activity at 100 µM is less than 20%.
The same measure, in the same setting: with `O=c1cc(-c2ccccc2)oc2cc(O)c(O)c(O)c12` [baicalein] the figure was less than 20%; with `C[C@@H]1O[C@@H](O[C@H]2[C@H](Oc3cc(O)c4c(c3)O[C@H](c3ccc(O)cc3)CC4=O)O[C@H](CO)[C@@H](O)[C@@H]2O)[C@H](O)[C@H](O)[C@H]1O` [naringin], less than 20%.
On to `O=c1c2cc(O)c(O)cc2oc2cc(O)c([C@@H]3O[C@H](CO)[C@@H](O)[C@H](O)[C@H]3O)c(O)c12` [mangiferin], for which the activity at 100 µM was less than 20%.

In a further assay the target is T1, IBV PLpro. The assay is described as follows: UB-AMC deubiquitination, fluorescence kinetics.
Settings: not given
It is filed as biochemical.
On to `O=c1c(O)c(-c2cc(O)c(O)c(O)c2)oc2cc(O)cc(O)c12` [myricetin], for which the IC50 (usually the concentration at which inhibition is half-maximal) is 10.6 µM.

The record behind these values is publication PMC8741506 (Poultry Science, 2021).
